Patent publication US20230019491A1, “PYRIMIDINE TBK/IKKe INHIBITOR COMPOUNDS AND USES THEREOF” (Merck Patent GmbH, priority 2017, published 2023)
Where a name gives a salt, the structure may show the parent alone.

What was measured:
TBK1 = molecular target: T1, TBK1 (Homo sapiens, UniProt Q9UHD2); experiment: TBK biochemical assay; conditions: 10 point 1:4 dose response, 30 uM top concentration, 90 min at 25° C., LabChip EZ Reader II; read-out: TBK1_IC50
T1 sequence (Q9UHD2 1-729): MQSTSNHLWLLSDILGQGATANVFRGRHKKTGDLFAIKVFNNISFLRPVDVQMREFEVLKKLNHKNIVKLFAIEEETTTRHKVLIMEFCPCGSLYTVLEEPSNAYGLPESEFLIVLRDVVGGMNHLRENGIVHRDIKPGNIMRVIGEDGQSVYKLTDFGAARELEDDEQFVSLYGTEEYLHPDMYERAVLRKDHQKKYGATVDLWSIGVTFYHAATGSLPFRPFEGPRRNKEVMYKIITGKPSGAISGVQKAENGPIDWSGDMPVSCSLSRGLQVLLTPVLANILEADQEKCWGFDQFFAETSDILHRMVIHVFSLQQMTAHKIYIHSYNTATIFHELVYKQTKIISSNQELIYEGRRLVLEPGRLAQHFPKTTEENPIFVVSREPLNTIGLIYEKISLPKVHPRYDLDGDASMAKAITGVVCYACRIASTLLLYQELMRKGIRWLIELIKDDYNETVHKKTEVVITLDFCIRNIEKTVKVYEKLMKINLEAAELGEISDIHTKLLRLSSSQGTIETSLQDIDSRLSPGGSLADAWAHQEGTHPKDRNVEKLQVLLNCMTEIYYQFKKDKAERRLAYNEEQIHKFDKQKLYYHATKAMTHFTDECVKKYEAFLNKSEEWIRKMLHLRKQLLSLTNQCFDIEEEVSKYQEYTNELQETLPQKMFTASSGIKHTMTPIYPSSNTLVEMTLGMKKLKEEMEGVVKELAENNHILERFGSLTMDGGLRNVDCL
Procedure: (§1) Test compounds were transferred into Labcyte polypropylene 384 well plates (P055-25) and diluted to 3 mM using DMSO. […] 100 uM of a reference compound (1 uM final high concentration). Backfilling was performed if necessary so that all wells contain 1% DMSO final:
(§2) add 75 nl DMSO/well into columns 1, 2 and 24 using Labcyte Echo. add 75 nl 1.0 mM staurosporine/well into column 23 using Labcyte Echo ([…]) add 4.5 ul enzyme/well using multidrop dispenser add 3 ul substrate/well using multidrop dispenser incubate at 25° C. in Heidolph incubator for 90 min. add 7.5 ul 2× stop buffer using multidrop dispenser read on labchip ez reader II using TBK1.job
(§3) Raw data files were opened in the Caliper LabChip Reviewer program (Version 3.0.265.0 SP2) and peak assignments were adjusted to reflect “substrate first” with the software's post-run analysis options. A spline-fit baseline was applied using the software's analysis algorithm.

IKKε = molecular target: T2, IKKε (Homo sapiens, UniProt Q14164); experiment: IKKε biochemical assay; conditions: 10 point 1:4 dose response, 30 uM top concentration, 90 min at 25° C., LabChip EZ Reader II; read-out: IKKε_IC50
T2 sequence (Q14164 1-716): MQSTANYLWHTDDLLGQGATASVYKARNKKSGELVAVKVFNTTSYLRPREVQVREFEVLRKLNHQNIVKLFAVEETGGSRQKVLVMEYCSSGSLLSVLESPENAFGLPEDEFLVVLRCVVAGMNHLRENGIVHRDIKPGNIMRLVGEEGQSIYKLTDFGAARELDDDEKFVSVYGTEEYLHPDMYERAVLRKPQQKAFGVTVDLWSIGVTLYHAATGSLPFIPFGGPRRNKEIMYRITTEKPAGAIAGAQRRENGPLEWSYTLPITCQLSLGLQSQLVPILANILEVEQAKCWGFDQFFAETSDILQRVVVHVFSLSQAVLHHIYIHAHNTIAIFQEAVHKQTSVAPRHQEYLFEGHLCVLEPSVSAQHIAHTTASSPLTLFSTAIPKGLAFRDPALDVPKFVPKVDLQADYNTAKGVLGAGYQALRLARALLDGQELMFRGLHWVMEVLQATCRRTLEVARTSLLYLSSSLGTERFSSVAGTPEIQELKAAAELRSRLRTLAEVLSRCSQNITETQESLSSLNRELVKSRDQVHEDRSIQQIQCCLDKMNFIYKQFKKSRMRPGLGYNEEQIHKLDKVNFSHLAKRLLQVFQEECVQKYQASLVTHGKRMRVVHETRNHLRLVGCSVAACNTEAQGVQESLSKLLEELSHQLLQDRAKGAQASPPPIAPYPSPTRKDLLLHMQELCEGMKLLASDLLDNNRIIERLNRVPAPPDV
Procedure: as §1
as §2, with “C.” for “C. in Heidolph incubator”, “buffer” for “buffer using multidrop dispenser”, “IKKε.” for “TBK1.job”
as §3

SMILES	IC50 (TBK1) [nM]	IC50 (IKKε) [nM]
COc1nc(Nc2nccc(-c3ccc(OC4CCOCC4)c(C#N)c3)n2)ccc1N1CCN(C)CC1 [Example 33, 5-(2-(6-methoxy-5-(4-methylpiperazin-1-yl)pyridin-2-ylamino)pyrimidin-4-yl)-2-(tetrahydro-2H-pyran-4-yloxy)benzonitrile]	< 100	< 100
COc1nc(Nc2nccc(-c3ccc(OC4CCOCC4)c(C#N)c3)n2)ccc1N(C)CCN(C)C [Example 34, 5-[2-[(5-[[2-(dimethylamino)ethyl](methyl)amino]-6-methoxypyridin-2-yl)amino]pyrimidin-4-yl]-2-(oxan-4-yloxy)benzonitrile hydrochloride]	< 100	< 100
COc1nc(Nc2nccc(-c3ccc(OC4CCOCC4)c(C#N)c3)n2)ccc1N(C)CC(=O)N(C)C [Example 35, 2-[[6-([4-[3-cyano-4-(oxan-4-yloxy)phenyl]pyrimidin-2-yl]amino)-2-methoxypyridin-3-yl](methyl)amino]-N,N-dimethylacetamide hydrochloride]	< 100	< 100
COc1nc(Nc2nccc(-c3ccc(OC4CCOCC4)c(C#N)c3)n2)ccc1N1C[C@@H](C)N(C)[C@@H](C)C1 [Example 36, 5-[2-([6-methoxy-5-[cis-3,4,5-trimethylpiperazin-1-yl]pyridin-2-yl]amino)pyrimidin-4-yl]-2-(oxan-4-yloxy)benzonitrile]	< 100	< 100
COc1nc(Nc2nccc(-c3ccc(OC4CCOCC4)c(C#N)c3)n2)ccc1N1C[C@@H](C)O[C@@H](C)C1 [Example 37, 5-[2-([5-[cis-2,6-dimethylmorpholin-4-yl]-6-methoxypyridin-2-yl]amino)pyrimidin-4-yl]-2-(oxan-4-yloxy)benzonitrile]	< 100	< 100
COc1nc(Nc2nccc(-c3ccc(OC4CCOCC4)c(C#N)c3)n2)ccc1N1C[C@@H](C)N(C2COC2)[C@@H](C)C1 [Example 38, 5-[2-([5-[cis-3,5-dimethyl-4-(oxetan-3-yl)piperazin-1-yl]-6-methoxypyridin-2-yl]amino)pyrimidin-4-yl]-2-(oxan-4-yloxy)benzonitrile]	< 100	< 100
COc1nc(Nc2nccc(-c3ccc(OC4CCOCC4)c(C#N)c3)n2)ccc1C1CCN(C)CC1 [Example 40, 5-(2-[[6-methoxy-5-(1-methylpiperidin-4-yl)pyridin-2-yl]amino]pyrimidin-4-yl)-2-(oxan-4-yloxy)benzonitrile]	< 100	< 100
COc1nc(Nc2nccc(-c3ccc(OC4CCOCC4)c(C#N)c3)n2)ccc1CNC1CCN(C)CC1 [Example 41, 5-[2-[(6-methoxy-5-[[(1-methylpiperidin-4-yl)amino]methyl]pyridin-2-yl)amino]pyrimidin-4-yl]-2-(oxan-4-yloxy)benzonitrile hydrochloride]	< 100	< 100
COc1nc(Nc2nccc(-c3ccc(OC4CCOCC4)c(C#N)c3)n2)ccc1C1CCN(C)C1 (stereo not shown) [Example 42, 5-(2-[[6-methoxy-5-(1-methylpyrrolidin-3-yl)pyridin-2-yl]amino]pyrimidin-4-yl)-2-(oxan-4-yloxy)benzonitrile]	< 100	< 100
COc1nc(Nc2nccc(-c3ccc(OC4CCOCC4)c(C#N)c3)n2)ccc1C1CCN(C)CC1F (stereo not shown) [Example 43, 5-(2-[[5-(3-fluoro-1-methylpiperidin-4-yl)-6-methoxypyridin-2-yl]amino]pyrimidin-4-yl)-2-(oxan-4-yloxy)benzonitrile]	< 100	< 100
COc1nc(Nc2nccc(-c3cc(C#N)c(OC4CCOCC4)cn3)n2)ccc1N1CCN(C)CC1 [Example 44, 2-(2-[[6-methoxy-5-(4-methylpiperazin-1-yl)pyridin-2-yl]amino]pyrimidin-4-yl)-5-(oxan-4-yloxy)pyridine-4-carbonitrile hydrochloride]	1000 to 5000	> 5000
COc1nc(Nc2nccc(-c3cc(C#N)c(OC4CCOCC4)cn3)n2)ccc1C1CCN(C)CC1 [Example 45, 2-(2-[[6-methoxy-5-(1-methylpiperidin-4-yl)pyridin-2-yl]amino]pyrimidin-4-yl)-5-(oxan-4-yloxy)pyridine-4-carbonitrile]	> 5000	1000 to 5000
COc1nc(Nc2nccc(-c3ccc(OC4CCOCC4)c(C#N)n3)n2)ccc1C1CCN(C)CC1 [Example 46, 6-(2-[[6-methoxy-5-(1-methylpiperidin-4-yl)pyridin-2-yl]amino]pyrimidin-4-yl)-3-(oxan-4-yloxy)pyridine-2-carbonitrile]	< 100	< 100
COc1cc(C(=O)N(C)C)ncc1Nc1nccc(-c2ccc(OC3CCOCC3)c(C#N)c2)n1 [Example 47, 5-([4-[3-cyano-4-(oxan-4-yloxy)phenyl]pyrimidin-2-yl]amino)-4-methoxy-N,N-dimethylpyridine-2-carboxamide]	< 100	100 to 1000
COc1nc(C(=O)N(C)C)ccc1Nc1nccc(-c2ccc(OC3CCOCC3)c(C#N)c2)n1 [Example 48, 5-([4-[3-cyano-4-(oxan-4-yloxy)phenyl]pyrimidin-2-yl]amino)-6-methoxy-N,N-dimethylpyridine-2-carboxamide]	< 100	< 100
COc1cc(Nc2nccc(-c3ccc(OC4CCOCC4)c(C#N)c3)n2)ncc1C(=O)N(C)C [Example 49, 6-([4-[3-cyano-4-(oxan-4-yloxy)phenyl]pyrimidin-2-yl]amino)-4-methoxy-N,N-dimethylpyridine-3-carboxamide]	100 to 1000	100 to 1000
COc1cc(Nc2nccc(-c3ccc(OC4CCOCC4)c(C#N)c3)n2)cnc1C(=O)N(C)C [Example 50, 5-([4-[3-cyano-4-(oxan-4-yloxy)phenyl]pyrimidin-2-yl]amino)-3-methoxy-N,N-dimethylpyridine-2-carboxamide]	< 100	< 100
COc1cc(Nc2nccc(-c3cc(C#N)c(OC4CCOCC4)cn3)n2)ncc1C(=O)N(C)C [Example 51, 6-([4-[4-cyano-5-(oxan-4-yloxy)pyridin-2-yl]pyrimidin-2-yl]amino)-4-methoxy-N,N-dimethylpyridine-3-carboxamide]	> 5000	> 5000
COc1cc(Nc2nccc(-c3cc(C#N)c(OC4CCOCC4)cn3)n2)cnc1C(=O)N(C)C [Example 52, 5-([4-[4-cyano-5-(oxan-4-yloxy)pyridin-2-yl]pyrimidin-2-yl]amino)-3-methoxy-N,N-dimethylpyridine-2-carboxamide]	1000 to 5000	1000 to 5000
COc1cc(Nc2nccc(-c3ccc(OC4CCOCC4)c(C#N)c3)n2)ncc1N1CCN(C)CC1 [Example 53, 5-(2-[[4-methoxy-5-(4-methylpiperazin-1-yl)pyridin-2-yl]amino]pyrimidin-4-yl)-2-(oxan-4-yloxy)benzonitrile hydrochloride]	100 to 1000	100 to 1000
